Experimental data from article PMC6424980, “Distinct G protein-coupled receptor phosphorylation motifs modulate arrestin affinity and activation and global conformation” (Nature Communications, 2019).
Non-standard residues stand in square brackets, D forms with d. No end group written: not given here. pS = N[C@@H](COP(=O)(O)O)C(=O)O

B1: tri-phosphorylated peptide 3Pa of the bovine rhodopsin C-terminus (peptide)
chain: C(fluorescein‑5‑maleimide)DDEASTTVSKTET[pS]QVAPA
modifications: not fully specified (residue 12); also: third phospho-Ser/Thr site not placed
B2: phosphopeptide 4P of the bovine rhodopsin C-terminus (peptide)
chain: C(fluorescein‑5‑maleimide)DDEASTTVSKTET[pS]QVAPA
modifications: not fully specified (residue 12); also: two further phospho-Ser/Thr sites not placed
B3: tri-phosphorylated peptide 3Pd of the bovine rhodopsin C-terminus (peptide)
chain: C(fluorescein‑5‑maleimide)DDEASTTVSKTET[pS]QVAPA
modifications: not fully specified (residue 12); also: third phospho-Ser/Thr site not placed
B4: tri-phosphorylated peptide 3Pb of the bovine rhodopsin C-terminus (peptide)
chain: C(fluorescein‑5‑maleimide)DDEASTTVSKTET[pS]QVAPA
modifications: not fully specified (residue 12); also: third phospho-Ser/Thr site not placed
B5: phosphopeptide 6P of the bovine rhodopsin C-terminus (peptide)
chain: C(fluorescein‑5‑maleimide)DDEASTTVSKTET[pS]QVAPA
modifications: not fully specified (residue 12); also: four further phospho-Ser/Thr sites not placed
B6: tri-phosphorylated peptide 3Pc of the bovine rhodopsin C-terminus (peptide)
chain: C(fluorescein‑5‑maleimide)DDEASTTVSKTET[pS]QVAPA
modifications: not fully specified (residue 12); also: third phospho-Ser/Thr site not placed

Experiments:
[1] = tested on: arrestin-1 mutants I72B and F197NBD with nonphosphorylated light-activated rhodopsin in ROS membranes; experiment: Ternary complex formation (site-directed fluorescence and centrifugal pull-down); format: biochemical, bovine; details: 10 µM rhodopsin in ROS, 1 µM arrestin-1 I72B or F197NBD, 100 µM peptide, pH 7
Excerpt: Recombinant bovine arrestin-1 cloned into the pET15b vector was expressed and purified as described. The basic construct was a modified wild-type sequence that contained no native cysteines (C63A, C128S and C143A) nor tryptophans (W194F). Single cysteine residues were introduced by PCR at sites 72 or 197 as previously described. The I72C mutant was labeled with monobromobimane (Thermo Fisher) and is referred to as I72B. The F197C mutant was labeled with N,N′-Dimethyl-N-(Iodoacetyl)-N′-(7-Nitrobenz-2-Oxa-1,3-Diazol-4-yl)Ethylenediamine (IANBD amide, Thermo Fisher) and is referred to as F197NBD. Labeling was carried out as previously described[43],[61]. Both labeled mutants were assessed to be functionally similar to wild-type arrestin-1 using the Extra Meta II assay, which determines the ability of arrestin-1 to bind and stabilize the active Meta II form of rhodopsin[64].
Under dim-red light, samples were prepared that contained nonphosphorylated rhodopsin (10 µM) in ROS membranes, 1 µM arrestin-1 I72B or F197NBD, ±100 µM peptide in 50 mM HEPES, 130 mM NaCl, pH 7 (150 or 200 µl sample volume). One hundred microliters of the sample was used for fluorescence measurements, and the remainder was used for the centrifugal pull-down assay (50 µl per assay). Steady-state fluorescence measurements were performed using a SPEX Fluorolog (1680) instrument in front-face mode. Bimane fluorescence was recorded using an excitation wavelength of 400 nm and emission 424–600 nm, and NBD fluorescence was recorded using an excitation wavelength of 500 nm and emission 524–660 (2 nm step size, 0.5 s integration per point). Excitation slits were narrowed to 0.1−0.2 nm to minimize light-activation of rhodopsin, and emission slits were set at 4 nm. Pull-down analysis was performed by centrifuging samples at 16,000 × g for 10 min at 20 °C. Selected samples were light activated (>495 nm) for 15 s prior to centrifugation (appr. 60 s delay time). Following centrifugation, the supernatants were removed, and the pellets were solubilized in loading buffer containing 2% SDS and subjected to SDS PAGE. Bands were visualized using Coomassie Brilliant Blue.

[2] = molecular target: T1, arrestin-1 (monomerizing mutant F85A, F197A) (Bos taurus, UniProt P08168, F197A/F85A); experiment: Fluorescence anisotropy binding of fluorescein-labelled peptides to arrestin-1; parameters: species or system bovine
T1 construct: made in house; host or cells: E. coli NiCo (DE3) cells (New England Biolabs), pET-15b vector
Excerpt: (§1) Synthesized cDNAs of bovine arrestin-1, human arrestin-2 and human arrestin-3 were ordered from Genewiz, amplified by PCR and cloned (Supplementary Information Table 5) into the pET-15b vector (Novagen), using the Gibson Assembly protocol. The constructs contained an N-terminal hexa histidine tag linked by a linker that contained a Tobacco Etch Virus cleavage site (TEV; […]). PCR was used to introduce the monomerizing arrestin-1 mutations (F85A, F197A)[58]. Note that this mutant was employed for fluorescence anisotropy, trypsin digestion, and NMR experiments. Wild-type arrestin-2 and -3 were used for fluorescence anisotropy and trypsin digestion experiments. […] The arrestin-1 in this construct had the wild-type sequence. Note that this construct differs slightly from that previously published[59],[60] and was optimized for purification. We verified the functionality of this fusion construct using the standard centrifugal pull-down assay using phosphorylated rhodopsin in native ROS membranes.
0.1–0.2 mg of lyophilized peptide was dissolved in 50 µl of 50 mM phosphate-buffered saline (PBS) buffer at pH 7.0, and then two molar equivalents of fluorescein-5-maleimide dye stock dissolved in dimethylsulfoxid was added. The reaction was carried out at RT in the dark. After 1 h the reaction was topped up with 1 ml of ice-cold 100% acetone and stored until the next day at −20 °C. The precipitated peptide was centrifuged (13,000 × g) for 10 min. The labeled and precipitated peptide was sedimented, and the supernatant was removed. The peptide was resuspended again in ice-cold acetone, stored for 1 h at −20 °C and centrifuged (13,000 × g) for 10 min. […] The precipitated peptide was dried at RT in the dark. It was dissolved in 50 µl of 20 mM Bis-Tris propane pH 7.0 and 150 mM NaCl and its concentration was determined by absorbance. A molar extinction coefficient of 70,000/M/cm at pH 7.0 was assumed for calculating the concentration of the labeled peptide stock.
An 11-step serial dilution series of arrestin in 20 mM Bis-Tris propane pH 7.0, 150 mM NaCl, 8 mM 2‑mercaptoethanol, 2% (w/w) BSA, 0.02% (v/v) Tween-20 was prepared and transferred to a black high-bottom 384-well plate (Greiner). As control for free peptide, a position with only buffer was included. The peptide was added at a final concentration of 20 nM to each well. The plate was closed by a clear cover and vortexed for 15 s. Afterwards it was centrifuged (800 × g) for 2 min and stored at RT for 20 min. The reading was performed by default settings of PHERAstar plate-reader (BMG Labtech) and excitation‑/emission-wavelengths of 485 nm (12 nm bandpass)/520 nm (30 nm bandpass) were used. The analysis was performed using Origin2016 (Microcal Inc) software by fitting the data to a one-to-one binding model:2 r=R0+△R*P/Kd+P, where r stands for anisotropy, R0 stands for anisotropy of the ligand, ΔR stands for anisotropy of the complex minus anisotropy of the ligand, P stands for the concentration of protein, and Kd stands for the dissociation constant of the ligand.

arrestin-1 (F85A, F197A) = experiment: Limited trypsin digestion of arrestin-1 in presence of peptide; format: biochemical, bovine; details: arrestin:peptide 1:1.2, 35 °C, SDS PAGE
Excerpt: as §1
Arrestin (60 µg) was mixed at a 1 to 1.2 molar ratio with peptide and preincubated at RT for 5 min before 1 μl of 0.15 mg/ml trypsin stock was added. The enzymatic digestion was carried out at 35 °C (20 mM Bis-Tris propane pH 7.0, 150 mM NaCl, 10 mM 2‑Mercaptoethanol and 2 mM EDTA). At certain time points (5, 15, 30, 60, 90 min), 5 μl aliquots were quenched with heat incubation in the presence of 20 μl SDS loading buffer (95 °C, 5 min) and then subjected to SDS PAGE. Bands were visualized with InstantBlue (Expedeon).

arrestin-2 = experiment: Fluorescence anisotropy binding of fluorescein-labelled peptides to arrestin-2; parameters: species or system human
Excerpt: as §1
0.1–0.2 mg of lyophilized peptide was dissolved in 50 µl of 50 mM phosphate-buffered saline (PBS) buffer at pH 7.0, and then two molar equivalents of fluorescein-5-maleimide dye stock dissolved in dimethylsulfoxid was added. The reaction was carried out at RT in the dark. […] It was dissolved in 50 µl of 20 mM Bis-Tris propane pH 7.0 and 150 mM NaCl and its concentration was determined by absorbance. […]

[3] = molecular target: T2, bovine arrestin-1 with the monomerizing mutations F85A, F197A (bovine, UniProt P08168 2-404, F85A | F197A); experiment: fluorescence polarisation; fluorescence anisotropy; 20 nM fluorescently labelled peptide, 11-step serial dilution of arrestin; 20 mM Bis-Tris propane pH 7.0, 150 mM NaCl, 8 mM 2-mercaptoethanol, 2% BSA, 0.02% Tween-20; RT; one-to-one binding model; details: both partners purified
T2 construct: arrestin-1, bovine, synthesized cDNA in pET-15b; monomerizing mutations F85A, F197A; Used for fluorescence anisotropy, trypsin digestion and NMR (2H,15N,13C-labelled for NMR); residues of the linker may remain after cleavage (surmised); source: E. coli NiCo (DE3), purified (Ni-NTA, TEV, SQ column); not shown: His6, N-terminal, cleaved
T2 sequence (P08168 2-404 F85A/F197A): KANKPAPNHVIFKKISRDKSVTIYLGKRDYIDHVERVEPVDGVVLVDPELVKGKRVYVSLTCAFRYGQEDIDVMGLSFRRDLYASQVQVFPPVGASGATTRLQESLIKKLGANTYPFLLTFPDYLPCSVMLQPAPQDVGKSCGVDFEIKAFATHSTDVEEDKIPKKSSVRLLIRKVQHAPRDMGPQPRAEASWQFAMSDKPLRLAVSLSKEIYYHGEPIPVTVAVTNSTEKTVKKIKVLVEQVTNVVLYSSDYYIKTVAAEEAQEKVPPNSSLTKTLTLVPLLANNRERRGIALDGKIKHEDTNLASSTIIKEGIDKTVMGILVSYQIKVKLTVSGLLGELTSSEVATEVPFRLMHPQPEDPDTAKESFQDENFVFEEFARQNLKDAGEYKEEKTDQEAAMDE

T1 sequence (P08168 whole entry F85A/F197A): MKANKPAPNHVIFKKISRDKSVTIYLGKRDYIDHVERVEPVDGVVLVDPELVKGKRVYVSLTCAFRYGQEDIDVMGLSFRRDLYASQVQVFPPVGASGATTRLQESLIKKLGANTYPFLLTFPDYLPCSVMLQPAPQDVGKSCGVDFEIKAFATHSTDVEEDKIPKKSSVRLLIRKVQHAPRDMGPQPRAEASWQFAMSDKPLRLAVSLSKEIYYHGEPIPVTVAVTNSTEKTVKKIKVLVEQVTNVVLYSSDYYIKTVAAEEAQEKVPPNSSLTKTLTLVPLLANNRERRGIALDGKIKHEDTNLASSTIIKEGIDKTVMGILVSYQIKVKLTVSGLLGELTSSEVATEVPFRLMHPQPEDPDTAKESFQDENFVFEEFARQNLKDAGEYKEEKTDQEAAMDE

| Molecule | ternary complex formation (arrestin-1, nonphosphorylated rhodopsin, peptide) [1] | binding to arrestin-1 (in words) [2] | Kd [3] [µM] | further results |
| --- | --- | --- | --- | --- |
| CDDEASTTVSKTETSQVAPA [3Pe, tri-phosphorylated rhodopsin C-terminus peptide lacking one or both key sites] | very little arrestin binding | significant loss of affinity | – | – |
| CDDEASTTVSKTETSQVAPA [3Pf] | less ternary complex formation | significant loss of arrestin-1 affinity | – | limited trypsin digest pattern of arrestin-1 (conformational change, C-tail displacement) (arrestin-1 (F85A, F197A)): notable exception; binding to arrestin-2 (in words) (arrestin-2): bound well |
| CDDEASTTVSKTETSQVAPA [3Pg, tri-phosphorylated rhodopsin C-terminus peptide lacking one key site, containing pT335 and pS338] | moderate ternary complex formation | significant loss of affinity | – | – |
| CDDEASTTVSKTETSQVAPA [3Ph, tri-phosphorylated rhodopsin C-terminus peptide lacking one or both key sites] | very little arrestin binding | significant loss of affinity | – | – |
| CDDEASTTVSKTETSQVAPA [3Pi, tri-phosphorylated rhodopsin C-terminus peptide lacking one key site, containing pT335 and pS338] | moderate ternary complex formation | significant loss of affinity | – | – |
| CDDEASTTVSKTETSQVAPA [3Pj, tri-phosphorylated rhodopsin C-terminus peptide lacking one or both key sites] | very little arrestin binding | significant loss of affinity | – | – |
| CDDEASTTVSKTETSQVAPA [3Pk, tri-phosphorylated rhodopsin C-terminus peptide lacking one or both key sites] | very little arrestin binding | significant loss of affinity | – | – |
| B1 | – | – | < 250 | – |
| B2 | – | – | < 250 | – |
| B3 | – | – | < 250 | – |
| B4 | – | – | < 250 | – |
| B5 | – | – | < 250 | – |
| B6 | – | – | < 250 | – |
